Measurements taken from ChEMBL document CHEMBL4190385, “Benzofuran-pyran hybrids: A new class of potential bone anabolic agents” (Bioorg Med Chem Lett, 2018).
Calls of active or inactive are those of the source. The calls are words filed in the database; no cut-off is given here.

Experiments:
[1] = species: Rattus norvegicus; assay: Stimulation of mineralization in Sprague-Dawley rat bone marrow stromal cells assessed as increase in calcium nodules at 1 uM incubated for 18 days hrs by Alizarin red S staining based photography; format: functional
[2] = system: Calvarial osteoblast; assay: Increase in COL1 mRNA expression in rat calvarial osteoblasts at 10 nM incubated for 72 hrs by qPCR method; format: functional
[3] = Increase in Runx-2 mRNA expression in Sprague-Dawley rat bone marrow stromal cells at 10 nM incubated for 7 days hrs by qPCR method; format: functional
[4] = system: Calvarial osteoblast; assay: Increase in Runx-2 mRNA expression in rat calvarial osteoblasts at 10 nM incubated for 72 hrs by qPCR method; format: functional
[5] = system: Calvarial osteoblast; assay: Stimulation of osteoblast differentiation in rat calvarial osteoblasts assessed as increase in ALP activity at 1 pM to 100 uM using p-nitrophenylphosphate substrate incubated for 48 hrs by colorimetry; format: functional, cell-based
[6] = system: Calvarial osteoblast; assay: Stimulation of osteoblast differentiation in rat calvarial osteoblasts assessed as increase in ALP activity at 100 nM using p-nitrophenylphosphate substrate incubated for 48 hrs by colorimetry; format: functional, cell-based
[7] = Increase in BMP2 mRNA expression in Sprague-Dawley rat bone marrow stromal cells at 10 nM incubated for 7 days hrs by qPCR method; format: functional
[8] = system: Calvarial osteoblast; assay: Stimulation of mineralization in rat calvarial osteoblasts assessed as increase in calcium nodules at 10 nM by Alizarin red S staining based photography; format: functional, cell-based
[9] = system: Calvarial osteoblast; assay: Increase in BMP2 mRNA expression in rat calvarial osteoblasts at 10 nM incubated for 72 hrs by qPCR method; format: functional
[10] = species: Rattus norvegicus; assay: Stimulation of mineralization in Sprague-Dawley rat bone marrow stromal cells assessed as increase in calcium nodules at 10 nM incubated for 18 days hrs by Alizarin red S staining based photography; format: functional
[11] = Increase in BMP2 mRNA expression in Sprague-Dawley rat bone marrow stromal cells at 1 uM incubated for 7 days hrs by qPCR method; format: functional
[12] = system: Calvarial osteoblast; assay: Cytotoxicity in rat calvarial osteoblasts assessed as reduction in cell viability at 1 pM to 1 uM incubated for 48 hrs by MTT assay; format: cell-based
[13] = Increase in Osx mRNA expression in Sprague-Dawley rat bone marrow stromal cells at 10 nM incubated for 7 days hrs by qPCR method; format: functional
[14] = system: Calvarial osteoblast; assay: Stimulation of mineralization in rat calvarial osteoblasts assessed as increase in calcium nodules at 100 pM by Alizarin red S staining based photography; format: functional, cell-based
[15] = system: Calvarial osteoblast; assay: Stimulation of osteoblast differentiation in rat calvarial osteoblasts assessed as increase in ALP activity at 1 uM using p-nitrophenylphosphate substrate incubated for 48 hrs by colorimetry; format: functional, cell-based
[16] = system: Calvarial osteoblast; assay: Stimulation of mineralization in rat calvarial osteoblasts assessed as increase in calcium nodules at 1 uM by Alizarin red S staining based photography; format: functional, cell-based
[17] = system: Calvarial osteoblast; assay: Stimulation of mineralization in rat calvarial osteoblasts assessed as increase in calcium nodules at 10 pM by Alizarin red S staining based photography; format: functional, cell-based

Compound | Activity [5] | Activity [8] | Activity [12] | Activity [14] | other results
COc1ccc(C(=O)c2cc3cc(C4C(C#N)=C(N)OC5=C4C(=O)CC(C)(C)C5)cc(C)c3o2)cc1 (centres undefined) | Active | Active | Non-Toxic | – | Activity [1]: Active; fold change (FC) [2]: 1.8; fold change (FC) [3]: 2; fold change (FC) [4]: 2.4; Activity [6]: Active; fold change (FC) [7]: 2.8; fold change (FC) [9]: 2.2; Activity [10]: Active; fold change (FC) [11]: 1.8; fold change (FC) [13]: 3
CCc1cc(C2C(C#N)=C(N)OC3=C2C(=O)CC(C)(C)C3)cc2cc(C(=O)c3ccc(OC)cc3)oc12 (centres undefined) | Active | – | Non-Toxic | inactive | –
Cc1ccc(C(=O)c2cc3cc(C4C(C#N)=C(N)OC5=C4C(=O)CC(C)(C)C5)cc(C)c3o2)cc1 (centres undefined) | Active | inactive | Non-Toxic | – | Activity [15]: Active
Cc1ccc(C(=O)c2cc3cc(C4C(C#N)=C(N)OC5=C4C(=O)CC(C)(C)C5)cc(C(C)(C)C)c3o2)cc1 (centres undefined) | Active | – | Non-Toxic | – | Activity [16]: Active
CC1(C)CC(=O)C2=C(C1)OC(N)=C(C#N)C2c1cc(C(C)(C)C)c2oc(C(=O)c3ccc(Cl)cc3)cc2c1 (centres undefined) | Active | – | Non-Toxic | – | Activity [17]: inactive
COc1ccc(C(=O)c2cc3cc(C4C(C#N)=C(N)OC5=C4C(=O)CC(C)(C)C5)cc(C(C)(C)C)c3o2)cc1 (centres undefined) | Active | – | Non-Toxic | inactive | –
